According to US20100087475A1, “PHARMACEUTICAL COMPOUNDS” (Biovali Laboratories International (Barbados) S.R.L., priority 2008, published 2010):

Tests used:
VMAT-2 = molecular target: T1, VMAT-2 (Rattus norvegicus, UniProt Q01827); experiment: [3H] Dihydrotetrabenazine binding assay for VMAT-2 (Assay B); conditions: [3H] dihydrotetrabenazine 5 nM, rat brain homogenate, competition binding
T1 construct: from tissue; host or cells: rat brain, 6 mm coronal slice incorporating the striatum, homogenate
T1 sequence (Q01827 whole entry): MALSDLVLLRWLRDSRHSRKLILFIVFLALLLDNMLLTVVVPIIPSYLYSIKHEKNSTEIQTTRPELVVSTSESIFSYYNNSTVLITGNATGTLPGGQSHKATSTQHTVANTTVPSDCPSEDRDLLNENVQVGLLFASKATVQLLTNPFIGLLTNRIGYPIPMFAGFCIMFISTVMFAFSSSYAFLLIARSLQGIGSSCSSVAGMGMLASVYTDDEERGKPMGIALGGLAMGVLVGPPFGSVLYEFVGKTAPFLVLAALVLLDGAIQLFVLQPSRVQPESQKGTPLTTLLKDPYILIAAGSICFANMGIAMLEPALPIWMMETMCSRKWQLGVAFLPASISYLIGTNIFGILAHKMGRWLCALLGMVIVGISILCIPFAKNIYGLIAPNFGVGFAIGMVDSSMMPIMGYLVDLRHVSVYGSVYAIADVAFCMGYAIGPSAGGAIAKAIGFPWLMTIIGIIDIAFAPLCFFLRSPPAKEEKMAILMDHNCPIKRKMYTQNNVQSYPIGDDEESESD
Excerpt: Screen for VMAT-2 binding activity using a [^3H] Dihydrotetrabenazine binding Assay
Dihydrotetrabenazine is a very potent and selective inhibitor of VMAT-2, and binds with high affinity (nM range) to this vesicular transporter. [^3H] Dihydrotetrabenazine has been successfully used for many years as a radioligand to label VMAT-2 in human, bovine and rodent brain (e.g. Scherman et al. J. Neurochem. 50, 1131-1136 (1988); Near et al. Mol. Pharmacol. 30, 252-257 (1986); Kilbourn et al. Eur. J. Pharmacol. 278, 249-252 (1995); and Zucker et al. Life Sci. 69, 2311-2317 (2001)).
Charles River CD-1 rats were euthanized by decapitation and the brains dissected free and placed in ice cold PBS. The chilled brain was placed in a coronal brain matrix (Activational Systems, Inc) with 1 mm intervals. Single edge razor blades were inserted such that a 6 mm slice incorporating the striatum was removed. The tissue was weighed and placed in an ice-cold hand homogenizer, 10 volumes of KBS-EDTA (137 mM KCl, 3 mM NaCl, 8 mM K2HPO4, 1.5 mM NaH2PO4, 1 mM EDTA, pH 8.0) were added and the tissue homogenized with 10 strokes (maintaining on ice). Aliquots were placed into 500 μl microfuge tubes and then stored at −80° C. for later assays. A fresh aliquot was taken for protein assay. Protein concentrations were determined using BCA Protein Assay (Pierce Chemical) with bovine serum albumin as the standard. For VMAT2 assay, aliquots were thawed and placed on ice, and diluted with KBS-EDTA for a final protein concentration of 1 mg/ml.
Whatman GF/C filters (Acros) were presoaked with PBS/0.1% polyethylenimine at room temperature and then placed on a 48 place cell harvester (Brandel). Harvester was loaded with labeled tubes (12×75 mm) in the test tube rack. Into the tubes were placed 10 μl of the compound dilutions to their respective triplicate tubes and 1 μl of 10 mM TBZ added to the tubes used for non-specific binding measurements. Into each tube was then placed 0.5 ml of a 10 nM [^3H] dihydrotetrabenazine (DTBZ) dilution (American Radiolabeled Chemicals) in KBS-EDTA, the tubes were vortexed, and then 0.5 ml of the 1 mg/ml rat forebrain tissue homogenate solution was added into all tubes. Each tube was vortexed briefly and then incubated at room temperature for 30 minute.
Final concentrations of samples were 500 μg protein, 5 nM [3H]DTBZ; 10 μM TBZ (for nonspecific tubes) in 1 ml total volume. […] Filter circles were placed in scintillation vials and 10 ml of Universol (ICN) was added, samples incubated overnight and then counted on a Packard Tri-Carb 1600 scintillation counter.
Competition binding isotherms were analyzed with the use of computer-assisted nonlinear curve-fitting (LIGAND program) using both one and two site models.

[1] = tested on: Imidazoline I2 (Central) Receptor; experiment: Radioligand binding, [3H] Idazoxan, cerebral cortex; design: species or system Wistar rat; conditions: compound at 10 μM
Description: (§1) Compounds of the invention were subjected to specific binding assays to test their ability to bind to the receptors and transporter proteins described below.
(k) Imidazoline I2 (Central) Receptor:
• Reference: Brown et al., Brit. J. Pharmacol., 99:803-809, (1990) • Source: Wistar rat cerebral cortex • Ligand: 2 nM [^3H]

[2] = tested on: Imidazoline I2 (Peripheral) Receptor; experiment: Radioligand binding, [3H] Idazoxan, kidney; design: species or system Wistar rat; conditions: compound at 10 μM
Description: as §1
(I) Imidazoline I2 (Peripheral) Receptor:
• Reference: Brown et al., Brit. J. Pharmacol., 99:803-809, (1990) • Source: Wistar rat kidney • Ligand: 5 nM [^3H]

Dopamine D2S Receptor = molecular target: T2, Dopamine D2S Receptor (Homo sapiens, UniProt P14416); experiment: Radioligand binding, [3H] Spiperone; conditions: compound at 10 μM
T2 construct: expressed in transfected cells; host or cells: CHO cells
T2 sequence (P14416 1-414 isoform P14416-2): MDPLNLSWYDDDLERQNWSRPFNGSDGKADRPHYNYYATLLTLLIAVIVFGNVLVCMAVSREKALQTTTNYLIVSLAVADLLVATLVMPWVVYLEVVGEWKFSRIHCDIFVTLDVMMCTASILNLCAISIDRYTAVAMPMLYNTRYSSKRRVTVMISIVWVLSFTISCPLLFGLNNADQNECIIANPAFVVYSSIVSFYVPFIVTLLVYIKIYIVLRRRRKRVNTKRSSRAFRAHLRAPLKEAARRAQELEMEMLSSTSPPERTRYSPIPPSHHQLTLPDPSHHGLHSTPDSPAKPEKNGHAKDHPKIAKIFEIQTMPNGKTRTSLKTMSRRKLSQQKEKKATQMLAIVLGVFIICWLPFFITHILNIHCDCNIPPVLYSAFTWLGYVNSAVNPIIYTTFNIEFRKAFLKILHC
Description: as §1
(f) Dopamine D2S Receptor:
• Reference: Grandy et al., Proc. Natl. Acad. Sci. USA, 86:9762-9766 (1989) • Source: Human recombinant CHO cells • Ligand: 0.16 nM [^3H]

Dopamine D4.4 Receptor = molecular target: T3, Dopamine D4.4 Receptor (Homo sapiens, UniProt P21917); experiment: Radioligand binding, [3H] Spiperone; conditions: compound at 10 μM
T3 construct: expressed in transfected cells; host or cells: CHO-K1 cells
T3 sequence (P21917 1-419): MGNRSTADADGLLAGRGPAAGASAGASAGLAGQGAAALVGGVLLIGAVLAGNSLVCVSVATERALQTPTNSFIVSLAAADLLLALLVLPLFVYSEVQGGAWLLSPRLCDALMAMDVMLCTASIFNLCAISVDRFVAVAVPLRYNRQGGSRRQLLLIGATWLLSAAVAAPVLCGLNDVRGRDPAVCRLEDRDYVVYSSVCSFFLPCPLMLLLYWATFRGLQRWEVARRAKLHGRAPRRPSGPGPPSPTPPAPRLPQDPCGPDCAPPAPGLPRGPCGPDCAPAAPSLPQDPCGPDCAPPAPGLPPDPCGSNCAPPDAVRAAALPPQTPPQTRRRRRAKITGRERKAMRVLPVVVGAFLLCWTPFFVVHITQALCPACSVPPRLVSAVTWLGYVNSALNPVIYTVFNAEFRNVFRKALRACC
Description: as §1
(i) Dopamine D4.4 Receptor:
• Reference: Van Tol et al., Nature, 350:610-614 (1991) • Source: Human recombinant CHO-K1 cells • Ligand: 1.2 nM [^3H]

Sigma σ1 Receptor = molecular target: T4, Sigma σ1 Receptor (Homo sapiens, UniProt Q99720); experiment: Radioligand binding, [3H] Haloperidol, jurkat cells; conditions: compound at 10 μM
T4 construct: Source: Human jurkat cells; endogenous in cells; host or cells: Jurkat cells
T4 sequence (Q99720 whole entry): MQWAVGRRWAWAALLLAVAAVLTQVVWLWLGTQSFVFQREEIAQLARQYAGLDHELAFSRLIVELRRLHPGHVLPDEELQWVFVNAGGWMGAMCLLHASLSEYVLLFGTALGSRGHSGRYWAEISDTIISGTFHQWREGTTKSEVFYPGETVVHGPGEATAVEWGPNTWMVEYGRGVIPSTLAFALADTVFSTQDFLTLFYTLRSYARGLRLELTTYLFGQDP
Description: as §1
• Reference: Ganaphthy et al., Pharmacol. Exp. Ther., 289:251-260, (1999) • Source: Human jurkat cells • Ligand: 8 nM [3H]

## COc1cc2c(cc1O)[C@@H]1C[C@@H](O)[C@H](CC(C)C)CN1CC2 (single isomer, unassigned) [(+)-10-desmethyl-γ-dihydrotetrabenazine]
VMAT-2
  Bmax: 0.174 ± 0.035 fmol/µg
  Ki: 451 nM
[1]
  % inhibition, (k) I2 Receptor (central): 24%
[2]
  % inhibition, (l) I2 Receptor (peripheral): 24%
Dopamine D2S Receptor
  % inhibition, (f) D2S Receptor: 63%
Dopamine D4.4 Receptor
  % inhibition, (i) D4.4 Receptor: 33%
Sigma σ1 Receptor
  % inhibition, (m) σ1 Receptor: 83%

## COc1cc2c(cc1O)[C@@H]1C[C@@H](O)[C@H](CC(C)C)CN1CC2 (single isomer, unassigned) [(−)-10-desmethyl-γ-dihydrotetrabenazine]
VMAT-2
  Bmax: 0.101 ± 0.009 fmol/µg
  Ki: 1.82 nM
[1]
  % inhibition, (k) I2 Receptor (central): 66%
[2]
  % inhibition, (l) I2 Receptor (peripheral): 25%
Dopamine D2S Receptor
  % inhibition, (f) D2S Receptor: 98%
Dopamine D4.4 Receptor
  % inhibition, (i) D4.4 Receptor: 81%
Sigma σ1 Receptor
  % inhibition, (m) σ1 Receptor: 55%
